System: SNB19 cells
Assay: Wound healing assay
Type: cell-based, human
Conditions: 48 hrs after scratching; scratch 2 days after start of treatment
Method: The wound healing assay was carried out according to Zhang et al. (2018) J Mol Neurosci 64:262-272. At the designated time, five randomly selected fields at the lesion border were acquired under an inverted microscope (Olympus, IX71). The mean number of cells at the control group was defined as 100% and the mean number of other groups was normalised by means of the control group, respectively.

## verteporfin
  wound healing (cell migration): healed more slowly

From patent publication US20250302999A1, “TRANSGENE CASSETTES AND EPIGENETIC SILENCERS FOR THE TREATMENT OF DISORDERS” (Ospedale San Raffaele S.r.I., priority 2022, published 2025)
